IC50 data for ten molecules are collected here from ChEMBL document CHEMBL1149452 (J Med Chem, 2006).

pIC50: −log10 of the molar value.

For assay [1], the target named is T1, 17-beta-hydroxysteroid dehydrogenase type 1 (Homo sapiens, UniProt P14061).
T1 sequence (P14061 whole entry): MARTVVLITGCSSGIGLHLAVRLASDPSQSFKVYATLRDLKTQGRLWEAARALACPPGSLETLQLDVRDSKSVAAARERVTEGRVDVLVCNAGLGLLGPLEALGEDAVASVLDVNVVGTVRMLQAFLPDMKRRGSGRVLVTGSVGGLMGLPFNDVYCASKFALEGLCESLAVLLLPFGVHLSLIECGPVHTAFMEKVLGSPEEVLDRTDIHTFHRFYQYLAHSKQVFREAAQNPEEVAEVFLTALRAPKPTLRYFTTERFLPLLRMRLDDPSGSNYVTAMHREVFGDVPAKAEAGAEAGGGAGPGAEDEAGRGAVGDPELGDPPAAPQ
The experiment in a line: (§1) Inhibition of 17-beta HSD1 in T47D cells. The format is functional, cell-based.

For assay [2], the target named is T2, 17-beta-hydroxysteroid dehydrogenase type 1 (Homo sapiens) (UniProt P14061).
T2 sequence (whole entry): T1 sequence (P14061 whole entry)
Described as §1. In kind it is functional, cell-based.

Broadly, the pIC50 is the IC50 on a negative log10 scale, so that one unit is a factor of ten. A lower pIC50 goes with a large IC50. In general, IC50 refers to the midpoint of a concentration-inhibition curve. A high value points to lower potency.

In turn, `CCOC(=O)CC1C[C@H]2[C@@H]3CCc4cc(O)ccc4[C@H]3CC[C@]2(C)C1=O` (stereo not given in full) had a negative-log IC50 (pIC50) in assay [1] of 6.52. As for `CCOC[C@H]1C[C@H]2[C@@H]3CCc4cc(O)ccc4[C@H]3CC[C@]2(C)C1=O`, the pIC50 in assay [1] is 6.49.

On to `C[C@]12CCC3c4ccc(O)cc4C(=O)CC3C1CC(C=O)=C2O` (stereo not given in full), for which the IC50 in assay [2] amounted to 700 nM. In turn, `C[C@]12CC[C@@H]3c4ccc(O)cc4CC[C@H]3[C@@H]1CC(C(=O)NCc1cccnc1)[C@@H]2O` (stereo not given in full) gave a negative-log IC50 (pIC50) in assay [1] of 6.29. Still for that read-out and setting: to `C[C@]12CC[C@@H]3c4ccc(O)cc4CC[C@H]3[C@@H]1CC(CC(=O)NCC1CCCO1)C2=O` (stereo not given in full) belongs 6.42; to `C[C@]12CC[C@@H]3c4ccc(O)cc4/C(=N\O)C[C@H]3[C@@H]1CC/C2=N\O`, 5.72. Take `C[C@]12CC[C@@H]3c4ccc(O)cc4CC[C@H]3[C@@H]1C/C(=C\c1ccncc1)[C@@H]2O`: the pIC50 in assay [1] was 5.39. Still for that read-out and setting: to `CC(NC(=O)C1C[C@H]2[C@@H]3CCc4cc(O)ccc4[C@H]3CC[C@]2(C)[C@H]1O)c1ccccc1` (stereo not given in full) belongs 6.09; to `CNC(=O)CC1C[C@H]2[C@@H]3CCc4cc(O)ccc4[C@H]3CC[C@]2(C)C1=O` (stereo not given in full), 5.82. Same read-out and setting: to `C[C@]12CC[C@@H]3c4ccc(O)cc4C(=O)C[C@H]3[C@@H]1CCC2=O` belongs 6.47.
